Assay results: PMC12406204 (Journal of Medicinal Chemistry, 2025)

Columns and labels:
CB2R [1] = target: T1, CB2R (Homo sapiens, UniProt P34972); test: Signaling bias quantification (relative activity model, JWH-133 reference); type: cell-based; parameters: expressed in transfected cells; host or cells: HEK-293T, transient transfection (PEI); settings: in parentheses
From the text: JWH-133, a well-known nonbiased (balanced) agonist, was employed as the reference for comparing the signaling profiles of the tested compounds. An operational model analysis was applied to quantify the functional bias of each CB2R-selective agonist. This involved calculating the bias factor by comparing the signaling pathways: β-arrestin versus cAMP, MAPK versus cAMP, and β-arrestin versus MAPK.

CB2R [2] = target: T1, CB2R; test: CB2R radioligand binding competition ([3H]CP55,940); parameters: expressed in transfected cells; host or cells: HEK-293T (HEK-CB2 cell line); settings: for Ki: displacement of [3H]CP 55,940, membranes of HEK-293T cells, n = 3; for SI Ki CB1R/Ki CB2R: selectivity index, affinity ratio
[3] = tested on: human monocytes and macrophages (THP-1 cells); test: Cytokine production in THP-1 monocytes and macrophages (ELISA/qRT-PCR); type: cell-based; settings: 100 nM; for cytokine modulation profile (reduction of pro-inflammatory, increase of anti-inflammatory cytokines): monocytes and macrophages; for production of pro-inflammatory cytokines (TNF-α, IFN-γ, IL-1β, IL-6): unstimulated monocytes and macrophages, 24 h
Method: Six representative CB2R agonists (16i, 16j, 18e, 18f, 18o, and 18p) were evaluated for their ability to modulate the production of key pro- (e.g., TNF-α, IFN-γ, IL-1β, IL-6) and anti-inflammatory (e.g., IL-4, IL-10) cytokines in human monocytes and macrophages, where CB2R is abundantly expressed. The experiments were performed both in basal and LPS-activated states and would allow to gain insight into how these compounds affect circulating leukocytes (monocytes) and tissue-resident cells (macrophages). To mimic an inflammatory environment, both cell types were also treated with LPS, enabling an assessment of the anti-inflammatory potential of the compounds in both resting and activated states. Alongside the selected ligands, the study included HU308, a well-established CB2R-selective agonist known for its anti-inflammatory properties, and SR144528, a CB2R-selective antagonist. SR144528 was used alone and in combination with the test compounds to confirm that the observed effects were specifically mediated through CB2R activation.
8 Cytokines levels in human monocytes (A, B) and macrophages (C, D) treated with CB2R ligands. THP-1 cells either untreated (A-B) or treated (C, D) with 0.01 μM PMA for 48 h to differentiate them into macrophages, were incubated for additional 24 h in the absence (A, C) or presence of 10 μg/mL LPS (B, D), without (Ctrl) or with the CB2R reference agonist HU308, the reference antagonist SR144528 and the CB2R ligands 16i, 16j, 18e, 18f, 18o, 18p at 100 nM. All the compounds were tested alone (solid bars) and in the presence of the CB2R antagonist SR144528 (striped bars). Cytokine levels were measured by ELISA coupled with qRT-PCR. Data are means ± SD (n = 3). Two-way ANOVA followed by Tukey’s posthoc test was applied. *p < 0.05; **p < 0.01; ***p < 0.001; ****p < 0.0001; * indicates vs Ctrl.
The amount of cytokines was measured in 5 μL of supernatants, derived from 1 × 10^4 cells, using the ProQuantum immunoassays kits for TNF-α, IFN-γ, IL-1β, IL-6, IL-10, and IL-4 [all from ThermoFisher Scientific (Waltham, MA)] according to the manufacturer’s instructions. The results were expressed as pg/mL based on the titration curved of each kits.

[4] = Cytotoxicity on THP1 monocytes and macrophages; type: cell-based; settings: human, 100 nM, basal and LPS-stimulated conditions, read-out: cell viability (cytotoxicity)
From the text: These findings collectively highlight the anti-inflammatory properties of the selected CB2R agonists. […] The cytokine modulation profiles observed (Figure ) support the hypothesis that these ligands promote a shift toward an anti-inflammatory immune response, reducing the detrimental effects of chronic inflammation. This makes them promising candidates for the development of new therapies addressing severe inflammatory conditions, such as systemic infections, sepsis, neuroinflammation, and certain types of cancer or scenarios where conventional anti-inflammatory treatments are insufficient. Moreover, the selective targeting of CB2R without activating CB1R ensures a favorable safety profile, minimizing the risk of psychoactive side effects, and positioning these ligands as promising candidates for neurodegenerative and oncological therapies. To ensure the safety and viability of our tested compounds, we evaluated their cytotoxic effects on monocytes and macrophages under the same conditions as those used for assessing anti-inflammatory activity (Figure ). Each compound was tested at a concentration of 100 nM.
Supplementary Figure S5. Cytotoxicity assessment of lead compounds (16i, 16j, 18e, 18f, 18o, and 18p) on THP1 monocytes and macrophages (n = 3). Cells were treated with each compound at 100 nM under both basal and LPS - stimulated conditions. The viability was compared to controls, including HU308 and SR144528. […]
cytotoxic effects, with cell viability remaining close to 100% across all conditions. Error bars represent standard deviation.
(1 picture or pasted object on this page, not shown here)

[5] = Drug transport (BBB permeability) in Caco-2 monolayer; type: in vitro ADME; settings: human; for efflux ratio at 120 min: Caco-2, bidirectional permeability ratio, read-out: P app (BA/AB); for Papp A→B at 120 min / Papp B→A at 120 min: Caco-2 monolayer, 1 × 10^–4 M
Method: To validate the early predictions from the CNS-MPO and BOILED-egg models (Figure ), we experimentally assessed the BBB permeability and P-gp interaction of the selected CB2R agonists. For these studies, two pairs of amide enantiomers (18p and 18o, 18e, and 18f) were selected, and the evaluations were conducted using established protocols previously published by our group. Key parameters measured included the permeability coefficients (P appBA and P appAB), the bidirectional permeability ratio (BA/AB), and the degree of interaction with P-gP, as detailed in Table .
Caco-2 cells were grown in Dulbecco’s high-glucose modified eagle medium, composed of 10% fetal bovine serum, 2 mM of glutamine, 100 U/mL of penicillin, and 0.1 mg/mL of streptomycin (all components purchased from Corning, Milan, Italy) in a humidified incubator at 37 °C with a 5% CO2 atmosphere. The experiment started with the preparation of the Caco-2 monolayer, which occurred by seeding the cells (20,000/well) in Millicell plates (Millipore, Milan, Italy). Its growth was followed for 21 days by changing the medium occasionally and measuring its transepithelial electrical resistance (TEER) daily using an epithelial voltohmmeter (Millicell-ERS) until a TEER value >240 ohms × cm^2 was reached. After 21 days, the plate was washed twice with Hank’s balanced salt solution (HBSS) (Invitrogen). After the second wash, the wells were filled with buffer, and the plate was kept at 37 °C for 30 min. After the incubation time, the HBSS buffer was replaced with the solutions of the compounds to be tested at a concentration of 1 × 10^–4 M. The plates were placed in an incubator at 37 °C for 120 min. The apparent permeability (P app), in units of nm s^–1, was calculated as previously reported. ,

T1 sequence (P34972 whole entry): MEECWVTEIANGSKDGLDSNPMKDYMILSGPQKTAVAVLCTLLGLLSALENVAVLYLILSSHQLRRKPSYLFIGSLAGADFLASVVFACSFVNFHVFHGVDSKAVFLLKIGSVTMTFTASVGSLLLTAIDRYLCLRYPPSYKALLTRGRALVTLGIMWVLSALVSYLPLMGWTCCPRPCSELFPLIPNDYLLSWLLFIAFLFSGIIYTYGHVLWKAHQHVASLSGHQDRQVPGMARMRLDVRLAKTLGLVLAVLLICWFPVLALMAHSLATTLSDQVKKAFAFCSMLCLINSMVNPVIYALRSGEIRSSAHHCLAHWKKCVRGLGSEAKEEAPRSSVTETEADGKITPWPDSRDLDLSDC

Row | SMILES | Preferred (biased) pathway MAPK – cAMP (CB2R [1]) | Preferred (biased) pathway β-arrestin – MAPK (CB2R [1]) | Preferred (biased) pathway β-arrestin – cAMP (CB2R [1]) | Ki (CB2R [2]) | SI Ki CB1R/Ki CB2R (CB2R [2]) | cytokine modulation profile (reduction of pro-inflammatory, increase of anti-inflammatory cytokines) [3] | production of pro-inflammatory cytokines (TNF-α, IFN-γ, IL-1β, IL-6) [3] | viability at 0.1 µM [4] | efflux ratio at 120 min [5] | Papp A→B at 120 min [5] | Papp B→A at 120 min [5]
1 | CCCCCn1nc(C(=O)N2CCCC[C@@H]2C(=O)OC)c2ccccc21 [16j] | No bias | MAPK | G protein | 89.1 ± 3.1 nM | >100 | significant reduction | significantly reduced | ~100% |  |  | 
2 | CCCCCn1nc(C(=O)N2CCCC[C@H]2C(=O)OC)c2ccccc21 [16i] | G protein | MAPK | G protein | 10.9 ± 0.5 nM | 62 | significant reduction | significantly reduced | ~100% |  |  | 
3 | NC(=O)[C@H]1CCCCN1C(=O)c1cn(CC2CCCCC2)c2ccccc12 [18f] | MAPK | MAPK | β-arrestin | 96.8 ± 2.6 nM | >100 | limited efficacy | significantly reduced | ~100% | 0.49 | 79.2 ×10⁻⁶ cm/s | 39.3 ×10⁻⁶ cm/s
4 | NC(=O)[C@@H]1CCCCN1C(=O)c1nn(Cc2ccc(F)cc2)c2ccccc12 [18o] | MAPK | MAPK | G protein | 54.6 ± 1.1 nM | >100 | significant reduction | significantly reduced | ~100% | 0.39 | 72.7 ×10⁻⁶ cm/s | 29 ×10⁻⁶ cm/s
5 | NC(=O)[C@H]1CCCCN1C(=O)c1nn(Cc2ccc(F)cc2)c2ccccc12 [18p] | MAPK | MAPK | G protein | 120 ± 5 nM | >100 | significant reduction | significantly reduced | ~100% | 0.35 | 63.2 ×10⁻⁶ cm/s | 21.9 ×10⁻⁶ cm/s
6 | NC(=O)[C@@H]1CCCCN1C(=O)c1cn(CC2CCCCC2)c2ccccc12 [18e] | MAPK | MAPK | β-arrestin | 30.2 ± 1.2 nM | >100 | limited efficacy | significantly reduced | ~100% | 0.51 | 99.5 ×10⁻⁶ cm/s | 50.6 ×10⁻⁶ cm/s
